Results: PubChem BioAssay AID743471 (Broad Institute, 2014)
Activity calls are given as the source filed them.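 How the source made its calls: active means fitted curve drops past -35% activity change at a concentration up to twice the top valid tested dose; inactive means the rest, including activity in the opposite direction.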

Test system: not listed separately
Assay: viability loss in HepG2 hepatoma cells – cell-based, luminescence, dry powder, set 12, cytotoxicity control, dose response (AID 743471)
Conditions: HepG2 viability, ATP luminescence (CellTiter-Glo), 72 h; at 26 µM (top of the series)

Row | Compound | activity change, negative = cytotoxicity
1 | COc1ccc(C2CNC(=O)C2)cc1OC1CCCC1 (centres undefined) | 15.7% (inactive)
2 | COc1ccc(S(=O)(=O)N(C(C)=O)c2ccc(OC(C)=O)c3ccccc23)cc1[N+](=O)[O-] | -15.5% (inactive)
3 | CN(C(=O)CCCOc1ccc2[nH]c(=O)ccc2c1)C1CCCCC1 | -11.4% (inactive)
4 | COc1ccc(CNc2nc(N3CCC[C@H]3CO)ncc2C(=O)NCc2ncccn2)cc1Cl | -10.6% (inactive)
5 | Cc1ccccc1C1C(C#N)=C(N)Oc2cc(N)ccc21 (centres undefined) | 0.564% (inactive)
6 | COc1ccccc1C1C(C#N)=C(N)Oc2cc(N)ccc21 (centres undefined) | 4.04% (inactive)
7 | COc1cc(C2C(C#N)=C(N)Oc3cc(N(C)C)ccc32)cc2c1OCO2 (centres undefined) | -11.7% (inactive)

Same assay, conditions: HepG2 viability, ATP luminescence (CellTiter-Glo), 72 h; at 50 µM (top of the series)

Row | Compound | activity change, negative = cytotoxicity
8 | O=P1(NCCCl)OCCCN1CCCl (centres undefined) | 7.58% (inactive)

Same assay, conditions: HepG2 viability, ATP luminescence (CellTiter-Glo), 72 h; at 110 µM (top of the series)

Row | Compound | activity change, negative = cytotoxicity
9 | O=C(c1cc(Cc2n[nH]c(=O)c3ccccc23)ccc1F)N1CCN(C(=O)C2CC2)CC1 | -17.3% (inactive)

Test system: HepG2 viability, ATP luminescence (CellTiter-Glo), 72 h
Assay: as above
Conditions: not given

Row | Compound | AC35 [µM]
10 | COc1ccc(S(=O)(=O)N2CC[C@@H]3[C@@H](CO)Nc4ccc(-c5ccc(C#N)cc5)cc4[C@@H]32)cc1 | 12.2
11 | COc1ccccc1-c1nnc2n1N=C(c1ccc(O)c(O)c1)CS2 | 19.2
12 | COc1ccc(-c2cc(NC=O)c3ncc(-c4ccc(OC)c(OC)c4)n3c2)cc1 | 3.25
13 | Cc1cc(Nc2cc(N3CCN(C)CC3)nc(Sc3ccc(NC(=O)C4CC4)cc3)n2)n[nH]1 | 8.49
14 | CC[C@@]1(O)C(=O)OCc2c1cc1n(c2=O)Cc2cc3c(CN(C)C)c(O)ccc3nc2-1 | 2.2
15 | COc1ccc(C2=Nn3c(nnc3-c3ccccc3OC)SC2)cc1OC | 0.53
16 | Clc1ccc(-c2cnc3ccc(-c4ccccc4)cn23)cc1 | 3.58
17 | Cc1nc(Nc2ncc(C(=O)Nc3c(C)cccc3Cl)s2)cc(N2CCN(CCO)CC2)n1 | 12.5
18 | Cn1cc(-c2ccncc2)c(-c2ccc(OCc3ccc4ccccc4n3)cc2)n1 | 12.9
19 | CC1(C)CC(c2nc(-c3ccc4ccc(-c5ccccc5)nc4c3)c3c(N)nccn23)C1 | 7.54
20 | COc1ccc(-c2ccc3c(c2)[C@H]2[C@H](CCN2S(=O)(=O)c2ccc(OC)cc2)[C@@H](CO)N3C)cc1 | 21.4
21 | CCOC(=O)CCNc1cc(N2CCc3ccccc3CC2)nc(-c2ccccn2)n1 | 16.5
22 | N#CC1=C(N)Oc2cc(N)ccc2C1c1ccccc1 (centres undefined) | 15
23 | CC(C)N1c2ccccc2C(c2ccc(F)cc2)C1/C=C/C(O)CC(O)CC(=O)O (centres undefined) | 22.3
24 | CCC(C)C(=O)OC1CC(C)C=C2C=CC(C)C(CCC(O)CC(O)CC(=O)O)C21 (centres undefined) | 88
25 | CN1CCN(CCOc2cc(OC3CCOCC3)c3c(Nc4c(Cl)ccc5c4OCO5)ncnc3c2)CC1 | 25.4
26 | CCc1c2c(nc3ccc(O)cc13)-c1cc3c(c(=O)n1C2)COC(=O)C3(O)CC (centres undefined) | 0.241
27 | COc1ccc(C2=Nn3c(nnc3-c3ccccc3F)SC2)cc1OC | 20.8
28 | COc1ccc(C2=Nn3c(nnc3-c3ccccc3Cl)SC2)cc1OC | 15.5
29 | N#CC1=C(N)Oc2cc(O)ccc2C1c1cccc(Br)c1 (centres undefined) | 13.7
30 | COc1ccc(-c2cc(NC(C)=O)c3ncc(-c4ccc(OC)c(OC)c4)n3c2)cc1 | 17.9
31 | COc1ccc(C2=Nn3c(nnc3-c3ccccc3)SC2)cc1OC | 20.2
32 | COc1ccc(-c2ccc3c(c2)[C@H]2[C@H](CCN2S(=O)(=O)c2ccc(OC)cc2)[C@@H](CO)N3)cc1 | 21.2
33 | Nc1ccn([C@@H]2O[C@H](CO)[C@H](O)C2O)c(=O)n1 (some centres undefined) | 3.04
34 | COc1cccc2c1C(=O)c1c(O)c3c(c(O)c1C2=O)C[C@@](O)(C(=O)CO)C[C@@H]3O[C@H]1C[C@H](N)[C@H](O)[C@H](C)O1 | 0.0577
35 | COc1ccc(S(=O)(=O)N2CC[C@@H]3[C@@H](CO)Nc4ccc(-c5cccc(C#N)c5)cc4[C@@H]32)cc1 | 14.9
36 | N#CC1=C(N)Oc2ccc3ccccc3c2C1c1cccc(F)c1 (centres undefined) | 16.4
37 | C=C([C@@H](O)[C@@H](C)O)[C@@H](OC)[C@]1(C)Cc2cc3cc(O[C@H]4CC(OC5CC(O)C(O)C(C)O5)C(O)C(C)O4)cc(O)c3c(O)c2C(=O)[C@H]1OC1CC(OC2CC(OC3CC(C)(O)C(O)C(C)O3)C(O)C(C)O2)C(O)C(C)O1 (some centres undefined) | 0.116
38 | Nc1ncnc2c1c(-c1cccc(OCc3ccccc3)c1)cn2C1CC(CN2CCCC2)C1 (centres undefined) | 9.61
39 | COc1ccc(C(=O)CC2(O)C(=O)Nc3c(Cl)ccc(Cl)c32)cc1 (centres undefined) | 8.13
